This is an account of results in article PMC10663516 (Scientific Reports, 2023).

Bounds are passed on as bounds.

On the set-up of series [1]: method as in PMID 29241979. As to conditions: phase 2 MCL study; cited from earlier work.
Another series deals with HU-DHL-1-epst. Nature of the series: Cell viability, ATPlite. Format: cell-based. The note with it: Homo sapiens, HU-DHL-1-epst (GCB-DLBCL), 72 h. As to the method: (§1) The potency of TL-895 effects on cell viability was further examined in vitro in a panel of diffuse large B-cell lymphoma (DLBCL) and MCL cell lines, comprising ten germinal B-cell like subtype (GCB)-DLBCL cell lines, six activated B-cell like (ABC)-DLBCL cell lines, and six MCL cell lines (Horizon Discovery Inc, Cambridge MA, USA). Cells were seeded into 384-well plates (500 cells/well) and incubated (37 °C for 24 h) before treatment with varying concentrations of TL-895 for 72 h. ATP levels were analyzed using the ATPlite Luminescence Assay System (Perkin Elmer, UK). Growth inhibition and maximum response were calculated using the Chalice Analyzer (Horizon Discovery Inc).
On the technique in general: In ATP-based viability assays light output follows the ATP content of the culture.

The next series relates to HT. Nature of the series: Cell viability, ATPlite. The class given is cell-based. As to conditions: Homo sapiens; HT (GCB-DLBCL), 72 h; read-out: Max response (GI %). As to the method: as §1
A further series relates to OCI-Ly18. Nature of the series: Cell viability, ATPlite. The class given is cell-based. The note with it: Homo sapiens, OCI-Ly18 (GCB-DLBCL), 72 h. As to the method: as §1
For another series, the system named is Mino. As to the kind of experiment: Cell viability, ATPlite. The class given is cell-based. The note with it: Homo sapiens, Mino (MCL), 72 h. The protocol: as §1
The test system of the next series is JVM-2. As to the kind of experiment: Cell viability, ATPlite. The class given is cell-based. The note with it: Homo sapiens, JVM-2 (MCL), 72 h. As to the method:
as §1

The subject of the next series is DOHH-2. As to the kind of experiment: Cell viability, ATPlite. The class given is cell-based. As to conditions: Homo sapiens, DOHH-2 (GCB-DLBCL), 72 h. The protocol:
as §1

A further series relates to DB. As to the kind of experiment: Cell viability, ATPlite. Format: cell-based. The note with it: Homo sapiens; DB (GCB-DLBCL), 72 h; read-out: Max response (GI %). As to the method:
as §1

For a further series, the system named is REC-1. As to the kind of experiment: Cell viability, ATPlite. Format: cell-based. The note with it: Homo sapiens, Rec1, REC-1 (MCL), 72 h. The protocol: as §1
A further series relates to OCI-Ly19. Nature of the series: Cell viability, ATPlite. Format: cell-based. The note with it: Homo sapiens; OCI-Ly19 (GCB-DLBCL), 72 h; read-out: Max response (GI %). The protocol: as §1
The next series has as its system Jeko-1. As to the kind of experiment: Cell viability, ATPlite. Format: cell-based. The note with it: Homo sapiens; Jeko-1 (MCL), 72 h; read-out: Max response (GI %). The protocol:
as §1

The subject of another series is Toledo. As to the kind of experiment: Cell viability, ATPlite. The class given is cell-based. As to conditions: Homo sapiens, Toledo (GCB-DLBCL), 72 h. The protocol:
as §1

Another series concerns GCB-DLBCL cell lines. As to the kind of experiment: Cell viability, ATPlite, GCB-DLBCL panel. Format: cell-based. As to conditions: Homo sapiens; all GCB-DLBCL cell lines, 72 h; read-out: IC50s in GCB-DLBCL cell lines. The protocol: as §1
The next series relates to A431 and A549. Nature of the series: ADCC induced by anti-PD-L1 or anti-EGFR antibody (51Cr release). The class given is cell-based, human. As to conditions: A431 and A549 target cells, PBMC effector cells, 4 h; TL-895 0.05 and 3 µM or 8 nM–25 µM. The protocol: In a second study, ADCC induced by anti-programmed death-ligand 1 (anti-PD-L1) or anti-EGFR antibody was measured using two cultured human tumor cell lines (A431 and A549, target cells; obtained from ATCC). Target cells were stimulated with human interferon-gamma (200 ng/mL) for 48 h to increase surface expression of PD-L1 target protein. Target cell and effector cells (peripheral blood mononuclear cells) were incubated for 4 h with (a) increasing concentrations of antibody (0.2–1000 ng/mL) and TL-895 (0, 0.05 and 3 µM), or (b) a fixed concentration of antibody (20 ng/mL) and increasing concentrations of TL-895 (8 nM–25 µM). ADCC analysis was based on the quantitation of chromium-51 (^51Cr) release during lysis of target cells using […] detection on a MicroBeta2 2450-0060 liquid scintillation and luminescence counter (PerkinElmer, Waltham, MA, USA).

The target in a further series is BTK (Homo sapiens, UniProt Q06187). As to the kind of experiment: BTK phosphorylation in Ramos cells after anti-IgM stimulation (ProteinSimple Wes). Format: cell-based. Details: endogenous in cells; host or cells: Ramos Burkitt's lymphoma cells (ATCC CRL-1596).
Series [2] is described as follows: Cytotoxicity by ATP content (CellTiter-Glo). The class given is cell-based, human. As to conditions: primary human hepatocytes, 24 h.
Experimental: (§2) HepG2 cells (human hepatocellular carcinoma [epithelial]) and primary human hepatocytes were cultured in DMEM/F-12 medium supplemented with antibiotics, sodium pyruvate, insulin and 10% fetal calf serum. During the testing steps, the medium was replaced by serum-free media containing bovine serum albumin (BSA) and dexamethasone. All the cultures are incubated at 37 °C in a humidified chamber containing 5% CO2. […] HepG2 and primary hepatocytes were cultured in 96-well tissue culture plates either for luminescence (2E4/well in 100 µL) or pre-coated with collagen I (3.5E4/well in 100 µL, respectively).
(§3) For the cytotoxicity data, the % values relative (%RV) to the vehicle controls were calculated for each dose level. […] The overall EC50s were the averages of the values obtained from each experiment (PRISM® GraphPad™ Software, Boston, MA).
The test system of series [3] is primary human hepatocytes. As to the kind of experiment: Cytotoxicity by ATP content (CellTiter-Glo). The class given is cell-based. The note with it: hepatocyte EC50 at 24 h.
Experimental: as §2, §3
In a further series the target is T1, BMX (Homo sapiens, UniProt P51813).
T1 construct: purchased EMD Millipore
As to the kind of experiment: Millipore Kinase Profiler screening panel, BMX. The class given is biochemical. As to the method:
The Kinase Profiler™ screening panel (EMD Millipore, Burlington, MA, USA) was used to test the inhibitory activity of TL-895 against 270 protein kinases. Kinases were incubated with TL-895 (1 µM) for 20 min to 4 h at room temperature, according to standard kinome screen procedures. […]

The conditions of series [4]: mouse, in vivo, po, 25 mg/kg.
On the set-up of series [5]: method as in PMID 20615965. As to conditions: mice, oral, 14.2 mg/kg; cited from earlier work.

BTK, sequence (Q06187 whole entry): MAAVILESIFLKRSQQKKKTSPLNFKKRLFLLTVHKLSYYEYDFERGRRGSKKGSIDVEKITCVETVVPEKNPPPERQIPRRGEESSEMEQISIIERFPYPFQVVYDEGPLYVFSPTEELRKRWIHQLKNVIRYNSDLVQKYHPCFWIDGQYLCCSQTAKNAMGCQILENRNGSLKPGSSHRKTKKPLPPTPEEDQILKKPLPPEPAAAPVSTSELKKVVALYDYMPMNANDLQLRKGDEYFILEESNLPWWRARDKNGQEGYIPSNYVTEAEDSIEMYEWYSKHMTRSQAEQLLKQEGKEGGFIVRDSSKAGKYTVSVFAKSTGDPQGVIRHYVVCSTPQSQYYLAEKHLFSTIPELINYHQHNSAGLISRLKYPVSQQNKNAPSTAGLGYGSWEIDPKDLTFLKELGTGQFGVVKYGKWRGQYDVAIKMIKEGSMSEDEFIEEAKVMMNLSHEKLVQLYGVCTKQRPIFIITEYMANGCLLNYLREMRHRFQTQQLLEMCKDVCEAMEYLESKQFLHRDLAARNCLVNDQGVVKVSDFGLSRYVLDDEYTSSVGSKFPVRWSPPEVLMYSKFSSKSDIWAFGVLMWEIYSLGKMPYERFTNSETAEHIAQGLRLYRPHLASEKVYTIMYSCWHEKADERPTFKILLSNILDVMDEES
T1 sequence (P51813 whole entry): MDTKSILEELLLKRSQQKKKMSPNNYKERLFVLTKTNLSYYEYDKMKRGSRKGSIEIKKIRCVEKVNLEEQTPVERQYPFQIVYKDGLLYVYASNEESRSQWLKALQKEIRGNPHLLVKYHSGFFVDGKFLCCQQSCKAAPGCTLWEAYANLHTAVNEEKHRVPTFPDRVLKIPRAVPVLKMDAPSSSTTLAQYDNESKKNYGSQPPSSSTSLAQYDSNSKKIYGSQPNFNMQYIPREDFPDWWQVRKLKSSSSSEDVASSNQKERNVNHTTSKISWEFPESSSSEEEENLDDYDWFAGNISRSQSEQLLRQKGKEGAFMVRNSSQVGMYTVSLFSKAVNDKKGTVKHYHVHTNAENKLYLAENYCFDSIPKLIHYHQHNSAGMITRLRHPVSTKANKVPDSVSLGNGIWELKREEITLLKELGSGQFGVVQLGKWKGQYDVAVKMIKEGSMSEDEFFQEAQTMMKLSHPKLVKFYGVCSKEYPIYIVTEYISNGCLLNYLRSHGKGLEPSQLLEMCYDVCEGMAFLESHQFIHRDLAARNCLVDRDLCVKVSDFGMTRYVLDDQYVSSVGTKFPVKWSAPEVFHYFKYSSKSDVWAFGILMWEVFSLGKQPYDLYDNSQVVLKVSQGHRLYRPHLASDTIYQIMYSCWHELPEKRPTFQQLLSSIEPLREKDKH

Regarding `CC#CC(=O)N1CCC[C@H]1c1nc(-c2ccc(C(=O)Nc3ccccn3)cc2)c2c(N)nccn12` [Acalabrutinib], in series [1], the “Adverse event: diarrhea” value is listed as 31%, the “Adverse event: fatigue” value is on record as 27%, the “Adverse event: headache” value is 38% and the “Grade ≥ 3 adverse event: anemia” value was 9%. In [1], the “Grade ≥ 3 adverse event: neutropenia” value is 10% and the “Grade ≥ 3 adverse event: pneumonia” value is reported as 5%.

The term GI50 denotes the concentration giving 50% growth inhibition. A lower GI50 goes with more potent growth inhibition. For orientation: EC50 means the concentration that produces a half-maximal response. For the compound `C=CC(=O)N1CCC(F)(CNc2ncnc(N)c2-c2ccc(Oc3ccccc3)cc2)CC1` [TL-895], the concentration for 50% growth inhibition (GI50) came out at 20.8 µM in the series on HU-DHL-1-epst; 18.6 µM in the series with OCI-Ly18; 5.58 µM in the series on Mino; 6.81 µM in the series on JVM-2; 9.39 µM in the series with DOHH-2; 4.26 µM in the series with REC-1. Besides, halving of growth with Toledo (GI50) required 3.84 µM. Also, the IC50 in the series on HU-DHL-1-epst turned out to be 24.9 µM; with OCI-Ly18, 22.3 µM; in the series with Mino, 14 µM; with JVM-2, 17.9 µM; in the series with DOHH-2, 11.4 µM; in the series with REC-1, 13 µM. The IC50 is 5.18 µM in the series with Toledo; over 5 µM in the series with GCB-DLBCL cell lines; 0.001 to 0.01 µM on BTK (30 min pre-treatment, anti-IgM stimulation, read-out: IC50, BTK auto-phosphorylation at Y223); 0.005 µM at BMX. In addition, the Emax with HU-DHL-1-epst (read-out: Max response (GI %)) was found to be 73%; in the series with HT it was 17%; in the series with OCI-Ly18 (read-out: Max response (GI %)), 68%; with Mino (read-out: Max response (GI %)) it was 88%; with JVM-2 (read-out: Max response (GI %)), 135%; with DOHH-2 (read-out: Max response (GI %)) it was 130%. The Emax in the series with DB came out at 25%; in the series with REC-1 (read-out: Max response (GI %)) it was 83%; in the series with OCI-Ly19 it was 36%; in the series with Jeko-1, 42%; in the series with Toledo (read-out: Max response (GI %)) it was 195%. Further, the “Effect on ADCC of anti-PD-L1 or anti-EGFR antibodies (concentration–response, maximum cell lysis)” value with A431 and A549 is “did not affect the concentration–response or maximum cell lysis when combined with anti-PD-L1 or anti-EGFR antibodies, except at the highest concentrations tested”. Moreover, on BTK (up to highest tested concentration 1 µM), the “Phosphorylation of Y551 on the activation loop” value is listed as “not inhibited”. In [2], the EC50 at 24 h is 6.4 µM. Moreover, in series [3], the “Cytotoxicity EC50 in primary human hepatocytes relative to IC50 in primary CLL blasts” value worked out at 32 fold. Further, in series [4], the “Exposure relative to that needed for 90–95% target occupancy” value was 8.5 fold.

As for `C=CC(=O)N1CCC[C@@H](n2nc(-c3ccc(Oc4ccccc4)cc3)c3c(N)ncnc32)C1` [Ibrutinib], the Exposure in series [5] was 569 ng·h/mL.
